Several values for one entry are separate records, joined by “and”; a condition that tells them apart may be missing. Equal entries are not always repeated. Toxic doses and inconclusive results are not listed. *1 amine or outer side, *2 acyl side, *3 side chain or, on linkers, in order; H or OH if unused. Where a SMILES comes first, the peptide text is derived from it. Bridges are numbered along the chain shown (N, C = ends). Roman numbers before positions name the chains, in order. [ ]: non-standard residue; d: D form. Actinocin(1to9) = Cc1c2oc3c(C)ccc(C(=O)[*:2])c3nc-2c(C(=O)[*:1])c(N)c1=O; NMeV = CN[CH](C(=O)O)C(C)C; Aze = O=C(O)[CH]1CCN1; Sar = CNCC(=O)O
Tested on: CD2F1 mice, ip Colon 26 adenocarcinoma, median survival T/C
Assay: NCI In Vivo Anticancer Drug Screen. Data for tumor model Colon 26 Adenocarcinoma (intraperitoneal) in CD2F1 (CDF1) mice
Conditions: endpoint: median survival time, higher = longer survival
Procedure: The antitumor activity of compounds was measured in mice bearing transplantable tumors. Survival or tumor size were measured and the results are expressed as the measurement made in the treated group (T) divided by the measurement made in the vehicle treated control group (C). The tumor model used in this assay is Colon 26 Adenocarcinoma (intraperitoneal) in CD2F1 (CDF1) mice

[1] = dose: 12.5 mg/kg/injection, schedule: Q04DX003 (ip), vehicle: Klucel (hydroxypropylcellulose) (HPC)
[2] = dose: 25.0 mg/kg/injection, schedule: Q04DX003 (ip), vehicle: Klucel (hydroxypropylcellulose) (HPC)
[3] = dose: 100.0 mg/kg/injection, schedule: Q04DX003 (ip), vehicle: Klucel (hydroxypropylcellulose) (HPC)
[4] = dose: 12.5 mg/kg/injection, schedule: Q04DX003 (ip), vehicle: saline
[5] = dose: 25.0 mg/kg/injection, schedule: Q04DX003 (ip), vehicle: saline
[6] = dose: 50.0 mg/kg/injection, schedule: Q04DX003 (ip), vehicle: saline
[7] = dose: 100.0 mg/kg/injection, schedule: Q04DX003 (ip), vehicle: saline
[8] = dose: 200.0 mg/kg/injection, schedule: Q04DX003 (ip), vehicle: saline
[9] = dose: 50.0 mg/kg/injection, schedule: Q04DX003 (ip), vehicle: Klucel (hydroxypropylcellulose) (HPC)
[10] = dose: 200.0 mg/kg/injection, schedule: Q04DX003 (ip), vehicle: Klucel (hydroxypropylcellulose) (HPC)

Cc1c2oc3c(C)c([N+](=O)[O-])cc(C(=O)NC4C(=O)NC(C(C)C)C(=O)N5CCCC5C(=O)N(C)CC(=O)N(C)C(C(C)C)C(=O)OC4C)c3nc-2c(C(=O)NC2C(=O)NC(C(C)C)C(=O)N3CCCC3C(=O)N(C)CC(=O)N(C)C(C(C)C)C(=O)OC2C)c(N)c1=O (stereo not given)
T/C (dose: 500.0 micrograms/kg/injection, schedule: Q01DX001 (ip), vehicle: saline + alcohol): 112 % of control

CC1CC2OC2/C=C\C=C\C(=O)Cc2c(Cl)c(O)cc(O)c2C(=O)O1 (stereo not given)
T/C (dose: 12.5 mg/kg/injection, schedule: Q04DX002 (ip), vehicle: Klucel (hydroxypropylcellulose) (HPC)): 94 % of control
T/C (dose: 25.0 mg/kg/injection, schedule: Q04DX002 (ip), vehicle: Klucel (hydroxypropylcellulose) (HPC)): 92 % of control
T/C (dose: 50.0 mg/kg/injection, schedule: Q04DX002 (ip), vehicle: Klucel (hydroxypropylcellulose) (HPC)): 99 % of control
T/C (dose: 100.0 mg/kg/injection, schedule: Q04DX002 (ip), vehicle: Klucel (hydroxypropylcellulose) (HPC)): 99 % of control
T/C (dose: 200.0 mg/kg/injection, schedule: Q04DX002 (ip), vehicle: Klucel (hydroxypropylcellulose) (HPC)): 95 % of control

CCCC(=O)OCc1cc(=O)n(C)c2c3c4c(cc12)c(C)cc(=O)n4CO3
T/C (dose: 6.25 mg/kg/injection, schedule: Q04DX003 (ip), vehicle: Klucel (hydroxypropylcellulose) (HPC)): 98 % of control
T/C [1]: 104 % of control
T/C [2]: 123 % of control
T/C [3]: 152 % of control

Cc1c2oc3c(C)ccc(C(=O)NC4C(=O)NC(C(C)C)C(=O)N5CCCC5C(=O)N(C)CC(=O)N(C)C(C(C)C)C(=O)OC4C)c3nc-2c(C(=O)NC2C(=O)NC(C(C)C)C(=O)N3CCC3C(=O)N(C)CC(=O)N(C)C(C(C)C)C(=O)OC2C)c(N)c1=O (stereo not given) (I: TV[Aze][Sar][NMeV] / II: TVP[Sar][NMeV]; ester I:1-I:C, II:1-II:C; linker I:N-II:N via Actinocin(1to9); configuration not given here)
T/C (dose: 0.08 mg/kg/injection, schedule: Q04DX003 (ip), vehicle: saline + alcohol): 100 % of control
T/C (dose: 0.14 mg/kg/injection, schedule: Q04DX003 (ip), vehicle: saline + alcohol): 123 % of control
T/C (dose: 0.23 mg/kg/injection, schedule: Q04DX003 (ip), vehicle: saline + alcohol): 119 % of control
T/C (dose: 0.65 mg/kg/injection, schedule: Q04DX003 (ip), vehicle: saline + alcohol): 151 % of control
T/C (dose: 270.0 micrograms/kg/injection, schedule: Q04DX003 (ip), vehicle: saline + alcohol): 108 % of control
T/C (dose: 375.0 micrograms/kg/injection, schedule: Q01DX001 (ip), vehicle: saline + alcohol): 119 % of control
T/C (dose: 450.0 micrograms/kg/injection, schedule: Q04DX003 (ip), vehicle: saline + alcohol): 151 % of control
T/C (dose: 750.0 micrograms/kg/injection, schedule: Q01DX001 (ip), vehicle: saline + alcohol): 102 % of control
T/C (dose: 750.0 micrograms/kg/injection, schedule: Q04DX003 (ip), vehicle: saline + alcohol): 157 % of control

Cc1cn(C2CC(O)C(CO)O2)c(=O)[nH]c1=O (stereo not given)
T/C [4]: 98 % of control
T/C [5]: 98 % of control
T/C [6]: 98 % of control
T/C (dose: 64.0 mg/kg/injection, schedule: Q04DX002 (ip), vehicle: suspension in saline): 101 % of control
T/C [7]: 96 % of control and 100 % of control
T/C (dose: 128.0 mg/kg/injection, schedule: Q04DX002 (ip), vehicle: saline): 88 % of control
T/C (dose: 128.0 mg/kg/injection, schedule: Q04DX002 (ip), vehicle: suspension in saline): 100 % of control
T/C [8]: 99 % of control and 100 % of control
T/C (dose: 256.0 mg/kg/injection, schedule: Q04DX002 (ip), vehicle: suspension in saline): 94 % of control
T/C (dose: 400.0 mg/kg/injection, schedule: Q04DX003 (ip), vehicle: saline): 116 % of control and 98 % of control
T/C (dose: 512.0 mg/kg/injection, schedule: Q04DX002 (ip), vehicle: suspension in saline): 94 % of control
T/C (dose: 1024.0 mg/kg/injection, schedule: Q04DX002 (ip), vehicle: saline): 92 % of control
T/C (dose: 1024.0 mg/kg/injection, schedule: Q04DX002 (ip), vehicle: suspension in saline): 95 % of control

COc1cccc2c1C(=O)c1c(O)c3c(c(O)c1C2=O)C[C@@](O)(C(C)=O)C[C@@H]3OC1CC(O)C(O)C(C)O1 (stereo not given in full)
T/C (dose: 31.0 mg/kg/injection, schedule: Q07DX002 (iv), vehicle: saline): 108 % of control

COC(=O)[C@@]12OC[C@]34[C@H]([C@@H](O)[C@@H]1O)[C@@]1(C)CC(=O)C(O)=C(C)[C@@H]1C[C@H]3OC(=O)[C@H](OC(=O)/C=C(\C)C(C)C)[C@@H]24
T/C (dose: 0.66 mg/kg/injection, schedule: Q04DX003 (iv), vehicle: saline with Tween-80): 97 % of control
T/C (dose: 1.0 mg/kg/injection, schedule: Q04DX003 (iv), vehicle: saline with Tween-80): 94 % of control
T/C (dose: 1.5 mg/kg/injection, schedule: Q04DX003 (iv), vehicle: saline with Tween-80): 94 % of control
T/C (dose: 2.3 mg/kg/injection, schedule: Q04DX003 (iv), vehicle: saline with Tween-80): 92 % of control
T/C (dose: 3.5 mg/kg/injection, schedule: Q04DX003 (iv), vehicle: saline with Tween-80): 96 % of control

COc1cccc2c1C(=N)c1c(O)c3c(c(O)c1C2=O)C[C@@](O)(C(C)=O)C[C@@H]3OC1CC(N)C(O)C(C)O1 (stereo not given in full)
T/C (dose: 3.46 mg/kg/injection, schedule: Q04DX003 (ip), vehicle: water): 119 % of control
T/C (dose: 5.76 mg/kg/injection, schedule: Q04DX003 (ip), vehicle: water): 119 % of control
T/C (dose: 9.6 mg/kg/injection, schedule: Q04DX003 (ip), vehicle: water): 94 % of control

N=C(N)SCc1c2ccccc2c(CSC(=N)N)c2ccccc12
T/C [4]: 241 % of control
T/C [5]: 186 % of control
T/C [6]: 248 % of control
T/C [7]: 216 % of control
T/C [8]: 197 % of control

[N-]=[N+]=CC(=O)CCC(N)C(=O)O (stereo not given)
T/C (dose: 0.2 mg/kg/injection, schedule: Q04DX003 (ip), vehicle: saline): 102 % of control
T/C (dose: 0.39 mg/kg/injection, schedule: Q04DX003 (ip), vehicle: saline): 108 % of control
T/C (dose: 0.78 mg/kg/injection, schedule: Q04DX003 (ip), vehicle: saline): 108 % of control
T/C (dose: 1.56 mg/kg/injection, schedule: Q04DX003 (ip), vehicle: saline): 111 % of control
T/C (dose: 3.13 mg/kg/injection, schedule: Q04DX003 (ip), vehicle: saline): 120 % of control
T/C (dose: 6.25 mg/kg/injection, schedule: Q04DX003 (ip), vehicle: saline): 119 % of control

CCOC(C)C(/C=N/NC(N)=S)=NNC(N)=S (stereo not given)
T/C (dose: 12.5 mg/kg/injection, schedule: Q04DX003 (ip), vehicle: saline with Tween-80): 98 % of control
T/C [4]: 104 % of control
T/C (dose: 25.0 mg/kg/injection, schedule: Q04DX003 (ip), vehicle: saline with Tween-80): 98 % of control
T/C [5]: 93 % of control
T/C (dose: 50.0 mg/kg/injection, schedule: Q04DX003 (ip), vehicle: saline with Tween-80): 100 % of control
T/C [6]: 113 % of control
T/C (dose: 100.0 mg/kg/injection, schedule: Q04DX003 (ip), vehicle: saline with Tween-80): 99 % of control
T/C (dose: 200.0 mg/kg/injection, schedule: Q04DX003 (ip), vehicle: saline with Tween-80): 97 % of control
T/C (dose: 400.0 mg/kg/injection, schedule: Q04DX003 (ip), vehicle: saline with Tween-80): 97 % of control

Cc1cnc(/C=N\NC(N)=S)c2cccc(N)c12
T/C (dose: 25.0 mg/kg/injection, schedule: Q04DX003 (iv), vehicle: other): 110 % of control
T/C (dose: 42.0 mg/kg/injection, schedule: Q04DX003 (iv), vehicle: other): 103 % of control
T/C (dose: 68.0 mg/kg/injection, schedule: Q04DX003 (iv), vehicle: other): 108 % of control

CN(C1=NS(=O)(=O)N=C(N(C)c2ccccc2)O1)c1ccccc1
T/C [1]: 96 % of control
T/C [2]: 89 % of control
T/C [9]: 95 % of control
T/C [10]: 90 % of control

ClCCCCCCCCCCc1ccccc1
T/C [1]: 102 % of control
T/C [2]: 106 % of control
T/C [9]: 100 % of control
T/C [3]: 100 % of control
T/C [10]: 106 % of control
T/C (dose: 400.0 mg/kg/injection, schedule: Q04DX003 (ip), vehicle: Klucel (hydroxypropylcellulose) (HPC)): 114 % of control

CC(=O)Oc1ccccc1C(=O)O
T/C (dose: 72.0 mg/kg/injection, schedule: Q04DX002 (ip), vehicle: saline with Tween-80): 89 % of control

From PubChem BioAssay AID210 (DTP/NCI, 2004)
